Several values for one entry are separate records, joined by “and”; a condition that tells them apart may be missing. Equal entries are not always repeated.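 A five-concentration, 48-hour dose response in 96-well plates underlies each endpoint, interpolated linearly between surrounding concentrations. GI50: concentration for 50% inhibition of growth. The concentration for full growth arrest is given as TGI.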
Columns and labels:
Assay in all cases: NCI-60 cell line screen, 48 h
[1] = test system: 786-0 renal
[2] = test system: A498 renal
[3] = test system: A549 NSCLC
[4] = test system: ACHN renal
[5] = test system: BT-549 breast
[6] = test system: CAKI-1 renal
[7] = test system: CCRF-CEM leukemia
[8] = test system: COLO 205 colon
[9] = test system: DU-145 prostate
[10] = test system: EKVX NSCLC
[11] = test system: HCC-2998 colon
[12] = test system: HCT-116 colon
[13] = test system: HCT-15 colon
[14] = test system: HL-60(TB) leukemia
[15] = test system: HOP-62 NSCLC
[16] = test system: HOP-92 NSCLC
[17] = test system: HS 578T breast
[18] = test system: HT29 colon
[19] = test system: IGROV1 ovarian
[20] = test system: K-562 leukemia
[21] = test system: KM12 colon
[22] = test system: LOX IMVI melanoma
[23] = test system: M14 melanoma
[24] = test system: MALME-3M melanoma
[25] = test system: MCF7 breast
[26] = test system: MDA-MB-231 breast
[27] = test system: MDA-MB-435
[28] = test system: MDA-N
[29] = test system: MOLT-4 leukemia
[30] = test system: NCI-H226 lung
[31] = test system: NCI-H23 lung
[32] = test system: NCI-H460 lung
[33] = test system: NCI-H522 lung
[34] = test system: NCI/ADR-RES ovarian
[35] = test system: OVCAR-3 ovarian
[36] = test system: OVCAR-4 ovarian
[37] = test system: OVCAR-5 ovarian
[38] = test system: OVCAR-8 ovarian
[39] = test system: PC-3 prostate
[40] = test system: RPMI-8226 leukemia
[41] = test system: RXF 393 renal
[42] = test system: SF-268 CNS
[43] = test system: SF-295 CNS
[44] = test system: SF-539 CNS
[45] = test system: SK-MEL-2 melanoma
[46] = test system: SK-MEL-28 melanoma
[47] = test system: SK-MEL-5 melanoma
[48] = test system: SK-OV-3 ovarian
[49] = test system: SN12C renal
[50] = test system: SNB-19 CNS
[51] = test system: SNB-75 CNS
[52] = test system: SR leukemia
[53] = test system: SW-620 colon
[54] = test system: T-47D breast
[55] = test system: TK-10 renal
[56] = test system: U251 CNS
[57] = test system: UACC-257 melanoma
[58] = test system: UACC-62 melanoma
[59] = test system: UO-31 renal
[60] = test system: KM20L2 colon
[61] = test system: LXFL 529 NSCLC
[62] = test system: SNB-78 CNS

Compound CCCCCCCCCCCCC(O)[C@H]1CC[C@H](C(O)CCCCCC(=O)CCCCC2CC(C(C)=O)C(=O)O2)O1 (some centres not stated) has a TGI [1] of 52.1 µM, a GI50 [2] of 2.62 µM and a TGI [2] of 36.6 µM. It also gave a GI50 [3] of 2.33 µM, a TGI [3] greater than 100 µM and a GI50 [4] of 1.68 µM. It also gave a TGI [4] of 70.4 µM, a TGI [5] of 59.5 µM and a TGI [6] of 50.3 µM. It also gave a GI50 [7] of 2.15 µM, a TGI [7] greater than 45.6 µM and a GI50 [8] of 2.16 µM. For the same compound, the TGI [8] was greater than 57.8 µM, the TGI [9] was greater than 100 µM and the GI50 [10] was 3.24 µM. For the same compound, the TGI [10] was 54.8 µM, the TGI [11] was 32.1 µM and the GI50 [12] was 7.23 µM. The TGI [12] was 36 µM, the GI50 [13] was 6.51 µM and the TGI [13] was greater than 70.9 µM. For the same compound, the GI50 [14] was 2.68 µM, the TGI [14] was greater than 29.5 µM and the TGI [15] was 26.6 µM. For the same compound, the GI50 [16] was 3.23 µM, the TGI [16] was 31.7 µM and the GI50 [17] was 4.42 µM. For the same compound, the TGI [17] was 51.2 µM, the GI50 [18] was 2.96 µM and the TGI [18] was greater than 53.5 µM. For the same compound, the GI50 [19] was 4.3 µM, the TGI [19] was 71.6 µM and the GI50 [20] was 1.91 µM. For the same compound, the TGI [20] was greater than 63.6 µM, the GI50 [21] was 4.2 µM and the TGI [21] was 24.3 µM. It also gave a GI50 [22] of 1.87 µM, a TGI [22] of 21.6 µM and a GI50 [23] of 6.01 µM. It also gave a TGI [23] of 26.2 µM, a TGI [24] of 23.7 µM and a GI50 [25] of 1.38 µM. It also gave a TGI [25] greater than 51.6 µM, a GI50 [26] of 2.8 µM and a TGI [26] of 44.6 µM. For the same compound, the GI50 [27] was 1.92 µM, the TGI [27] was 35.6 µM and the GI50 [28] was 7.67 µM. For the same compound, the TGI [28] was 23.2 µM, the GI50 [29] was 2.81 µM and 2.14 µM and the TGI [29] was 23.4 µM. It also gave a GI50 [30] of 3.48 µM, a TGI [30] of 46.1 µM and a GI50 [31] of 1.72 µM. The TGI [31] was 63.8 µM, the GI50 [32] was 9.67 µM and the TGI [32] was 22.5 µM. The TGI [33] was 25.6 µM, the GI50 [34] was 1.87 µM and the TGI [34] was 40.4 µM. For the same compound, the GI50 [35] was 2.25 µM, the TGI [35] was 19.3 µM and the TGI [36] was 39.4 µM. It also gave a TGI [37] of 50 µM, a GI50 [38] of 4.34 µM and a TGI [38] greater than 53.9 µM. It also gave a GI50 [39] of 3.55 µM, a TGI [39] of 28.1 µM and a GI50 [40] of 2.12 µM. For the same compound, the TGI [40] was greater than 27.8 µM, the TGI [41] was 22.2 µM and the GI50 [42] was 3.43 µM. For the same compound, the TGI [42] was 53.4 µM, the GI50 [43] was 2.7 µM and the TGI [43] was 37.6 µM. For the same compound, the TGI [44] was 35.6 µM, the TGI [45] was 28.3 µM and the GI50 [46] was 4.06 µM. For the same compound, the TGI [46] was 66.2 µM, the GI50 [47] was 1.11 µM and the TGI [47] was 4.97 µM and 20.4 µM. For the same compound, the TGI [48] was 28 µM, the GI50 [49] was 12.9 µM and the TGI [49] was 29 µM. It also gave a GI50 [50] of 4.56 µM, a TGI [50] of 73.9 µM and a GI50 [51] of 7.11 µM. The TGI [51] was 59.3 µM, the GI50 [52] was 1.76 µM and the TGI [52] was greater than 38.1 µM. It also gave a GI50 [53] of 4.08 µM, a TGI [53] greater than 100 µM and a GI50 [54] of 3.84 µM. The TGI [54] was greater than 41.5 µM, the TGI [55] was greater than 68.6 µM and the GI50 [56] was 3.99 µM. The TGI [56] was greater than 62.5 µM, the GI50 [57] was 1.3 µM and the TGI [57] was 19.1 µM. For the same compound, the GI50 [58] was 3.84 µM, the TGI [58] was 21.6 µM and the TGI [59] was 26.9 µM.

For O=C(Nc1ccc([N+](=O)[O-])cc1Cl)c1cccc([N+](=O)[O-])c1O, the TGI [2] was 3.66 µM, the TGI [3] was 7.31 µM and the TGI [4] was 48.1 µM. The TGI [6] was 5.21 µM, the TGI [7] was greater than 100 µM and the TGI [10] was 6.54 µM. For the same compound, the TGI [11] was 20.9 µM, the TGI [14] was 5.43 µM and the TGI [18] was 79.7 µM. The TGI [20] was 12.5 µM, the TGI [21] was 15.3 µM and the TGI [60] was 10.2 µM. For the same compound, the TGI [22] was 14.5 µM, the TGI [61] was 13.6 µM and the TGI [24] was 4.73 µM. For the same compound, the TGI [29] was 28.3 µM, the TGI [30] was 9.31 µM and the TGI [31] was 4.01 µM. It also gave a TGI [32] of 13.3 µM, a TGI [33] of 4.32 µM and a TGI [36] of 45.3 µM. For the same compound, the TGI [37] was greater than 100 µM, the TGI [40] was 5.78 µM and the TGI [42] was 27.3 µM. The TGI [43] was 6.26 µM, the TGI [44] was 10.9 µM and the TGI [45] was 6.1 µM. The TGI [46] was 19.4 µM, the TGI [49] was 8.09 µM and the TGI [50] was greater than 100 µM. For the same compound, the TGI [62] was 9.75 µM, the TGI [52] was 18.9 µM and the TGI [53] was greater than 100 µM. It also gave a TGI [56] greater than 100 µM, a TGI [57] of 6.95 µM and a TGI [59] of 5.58 µM.

O=C1C(Cl)=C(Nc2ccc(S(=O)(=O)Nc3ccccn3)cc2)C(=O)c2ccccc21 showed a TGI [1] of 26.1 µM, a TGI [2] of 45.1 µM and a TGI [3] of 41.9 µM. It also gave a TGI [4] of 31.2 µM, a TGI [5] of 29.8 µM and a TGI [6] greater than 52.1 µM. The TGI [7] was greater than 25.5 µM, the TGI [8] was 27.8 µM and the TGI [9] was 25.9 µM. The TGI [10] was 31.7 µM, the TGI [11] was 24.8 µM and the TGI [12] was 18.8 µM. The TGI [13] was 23.2 µM, the TGI [14] was greater than 50.5 µM and the TGI [15] was 29.9 µM. The TGI [16] was 15.4 µM, the TGI [17] was 48 µM and the TGI [18] was 22.3 µM. It also gave a TGI [19] of 23.1 µM, a TGI [20] of 16.5 µM and a TGI [21] of 32.4 µM. It also gave a TGI [22] of 4.59 µM, a TGI [23] of 15.4 µM and a TGI [24] of 7.6 µM. The TGI [25] was 12.9 µM, the TGI [26] was 22 µM and the TGI [27] was 14 µM. It also gave a TGI [28] of 13.9 µM, a TGI [29] of 25.5 µM and a TGI [30] of 42.1 µM. For the same compound, the TGI [31] was 25.2 µM, the TGI [32] was 19.2 µM and the TGI [33] was 13.7 µM. For the same compound, the TGI [34] was greater than 40.9 µM, the TGI [35] was 15.6 µM and the TGI [36] was greater than 53.6 µM. It also gave a TGI [37] greater than 46.9 µM, a TGI [38] of 15.9 µM and a TGI [39] of 27 µM. The TGI [40] was 15.4 µM, the TGI [41] was 22.6 µM and the TGI [42] was 29.3 µM. For the same compound, the TGI [43] was 35.2 µM, the TGI [44] was 10.3 µM and the TGI [45] was 15.3 µM. The TGI [46] was 42.9 µM, the TGI [47] was 11.4 µM and the TGI [48] was 43 µM. The TGI [49] was 30.4 µM, the TGI [50] was 38.7 µM and the TGI [51] was 21.9 µM. For the same compound, the TGI [52] was 16.2 µM, the TGI [53] was greater than 73.5 µM and the TGI [54] was 39.7 µM. For the same compound, the TGI [55] was 22.7 µM, the TGI [56] was 19.3 µM and the TGI [57] was 10.3 µM. The TGI [58] was 11.8 µM and the TGI [59] was 29 µM.
